According to paper PMC3718742, “Proline Dehydrogenase Regulates Redox State and Respiratory Metabolism in Trypanosoma cruzi” (PLoS ONE, 2013):

T1: recombinant TcPRODH (Trypanosoma cruzi, UniProt Q4CVA1)
T1 construct: gene Tc00.1047053506411.30; dimer (native gel of mitochondria, 140 kDa)
T1 sequence (Q4CVA1 17-566): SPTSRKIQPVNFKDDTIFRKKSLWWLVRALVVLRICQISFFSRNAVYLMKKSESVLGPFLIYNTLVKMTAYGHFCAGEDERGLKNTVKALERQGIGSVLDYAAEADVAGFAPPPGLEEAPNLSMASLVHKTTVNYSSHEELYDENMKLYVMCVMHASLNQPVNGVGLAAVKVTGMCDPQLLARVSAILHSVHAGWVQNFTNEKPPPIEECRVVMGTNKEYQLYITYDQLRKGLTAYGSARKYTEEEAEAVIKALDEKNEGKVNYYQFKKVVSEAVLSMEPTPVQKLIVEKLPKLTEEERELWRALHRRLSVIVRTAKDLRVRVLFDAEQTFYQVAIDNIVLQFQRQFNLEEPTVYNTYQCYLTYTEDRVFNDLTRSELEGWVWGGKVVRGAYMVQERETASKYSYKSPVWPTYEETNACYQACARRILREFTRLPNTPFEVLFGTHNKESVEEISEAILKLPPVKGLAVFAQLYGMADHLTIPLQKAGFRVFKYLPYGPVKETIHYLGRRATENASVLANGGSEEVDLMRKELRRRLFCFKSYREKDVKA


Experiments:
recombinant TcPRODH = target: T1, recombinant TcPRODH; experiment: UV-visible spectrum of purified enzyme; cofactor dependence of activity; assay type: biochemical; settings: flavin peaks at 370 and 450 nm; NAD+ and NADP+ not accepted
purified protein = substrate: O=C(O)[C@@H]1CCCN1; experiment: purified protein; settings: DCPIP/phenazine methosulfate acceptor, MOPS, MgCl2, glycerol, pH 7.5, error printed as ±1.69 in text (b1)

Molecule	UV-visible spectrum of purified enzyme; cofactor dependence of activity (recombinant TcPRODH)	Km (purified protein) [µM]
Cc1cc2nc3c(=O)[nH]c(=O)nc-3n(C[C@H](O)[C@H](O)[C@H](O)COP(=O)(O)OP(=O)(O)OC[C@H]3O[C@@H](n4cnc5c(N)ncnc54)[C@H](O)[C@@H]3O)c2cc1C [FAD]	purified enzyme had a typical flavoprotein absorbance spectrum, characterized by two flavin absorption peaks	
recombinant TcPRODH (Trypanosoma cruzi strain CL Brener) (protein) SPTSRKIQPVNFKDDTIFRKKSLWWLVRALVVLRICQISFFSRNAVYLMKKSESVLGPFLIYNTLVKMTAYGHFCAGEDERGLKNTVKALERQGIGSVLDYAAEADVAGFAPPPGLEEAPNLSMASLVHKTTVNYSSHEELYDENMKLYVMCVMHASLNQPVNGVGLAAVKVTGMCDPQLLARVSAILHSVHAGWVQNFTNEKPPPIEECRVVMGTNKEYQLYITYDQLRKGLTAYGSARKYTEEEAEAVIKALDEKNEGKVNYYQFKKVVSEAVLSMEPTPVQKLIVEKLPKLTEEERELWRALHRRLSVIVRTAKDLRVRVLFDAEQTFYQVAIDNIVLQFQRQFNLEEPTVYNTYQCYLTYTEDRVFNDLTRSELEGWVWGGKVVRGAYMVQERETASKYSYKSPVWPTYEETNACYQACARRILREFTRLPNTPFEVLFGTHNKESVEEISEAILKLPPVKGLAVFAQLYGMADHLTIPLQKAGFRVFKYLPYGPVKETIHYLGRRATENASVLANGGSEEVDLMRKELRRRLFCFKSYREKDVKA		16.58 ± 6.08
